Assay [1] deals with sedge. The experiment in a line: Greenhouse synergy test MBI-005 + commercial herbicides (Example 11). In kind it is in vivo. Conditions: cyhalofop 1.176 mg/mL, 14 days. The protocol:
(§1) The test species barnyard grass, ragweed, sedge, and broad-leaf mustard were used for the valuation of synergy between MBI-005 and the rice herbicides clomazone, penoxsulam, cyhalofop, fenoxaprop-p-ethyl, bispyribac-sodium, thiobencarb, and propanil.
(§2) There were 3 replicates per treatment which were sprayed with approximately ⅔ ml per replicate. The treatments were completely randomized and kept in a greenhouse at 25° C. The efficacy was rated at 7 and 14 days post treatment.

The test system of assay [2] is broad-leaf mustard. The assay is described as above. As to conditions: 14 days. The class given is in vivo. The method, then:
as §1, §2

Assay [3] relates to red stem. Description: Greenhouse test cyhalofop + thaxtomin A (Example 7). As to conditions: Cyhalofop 6.5 oz/acre, no thx A; 21-day evaluation. In kind it is in vivo. The method, then:
(§3) Cyhalofop (2-[4-(4-cyano-2-fluorophenoxy)phenoxy]propanoic acid, butyl ester) is also mixed together with adjuvant containing ethyl oleate, polyethylene dialky ester and ethoxylated nonylphenol (2.5% v/v) and increasing concentrations of thaxtomin A (purified from the ATCC strain 49003) at concentrations 0.1, 0.2 and 0.4 mg/ml. The concentrations of the 2-[4-(4-cyano-fluorophenoxy)phenoxy]propanoic acid, butyl ester before dilution are 29.6% (2.38 lb/gal) and 21.7% (2 lb/gal), respectively. The effect of these mixtures on the growth of common water plantain, red stem, smallflower sedge and sprangletop is determined in the greenhouse. Similarly, rice plants of variety M104 are grown and tested for phytotoxic effects, and all plants are evaluated 7, 14, and 21 days after treatment.

The subject of assay [4] is smallflower sedge. The assay is described as above. As to conditions: Cyhalofop 6.5 oz/acre, no thx A, 21-day evaluation. The class given is in vivo. The method, then: as §3
Assay [5] relates to sprangletop. The description is as above. The class given is in vivo. Conditions: Cyhalofop 6.5 oz/acre, no thx A, 21-day evaluation. The method, then: as §3
Assay [6] concerns common water plantain. The description is as above. The class given is in vivo. Conditions: Cyhalofop 6.5 oz/acre, no thx A; 21-day evaluation. The method, then:
as §3

In assay [7] the test system is barnyard grass. Description: Greenhouse synergy test MBI-005 + commercial herbicides (Example 11). As to conditions: propanil 0.365 mg/mL, 14 days. The class given is in vivo. The protocol: as §1, §2
For assay [8], the system named is small flower umbrella sedge. Description: Post-emergent MBI-005 + rice herbicides on smallflower umbrella sedge (Example 19). In kind it is in vivo. Conditions: Propanil .5% v/v of label rate; 14 days. The protocol:
Twenty seedlings in 2.5 cm square pots containing plant growth mix were sprayed to full coverage using a hand sprayer. Negative controls were sprayed with water. Pots were randomly placed in a growth room at 25° C. and 50% RH, and watered as necessary. Treatments were replicated three times and evaluated at 7 and 14 days for visual % damage, with 0% indicating no damage and 100% indicating plant death.
(§4) Synergy was calculated as the ratio of observed (E) to expected (E/Ee) percent control using Colby's formula.

The subject of assay [9] is barnyard grass. Description: Post-emergent MBI-005 + Propanil on barnyard grass (Example 20). The class given is in vivo. As to conditions: Echinochloa crus-galli, post-emergence, 336 h; 25% Propanil (of label rate); 14 days; read-out: Observed Average % Efficacy (E). The method, then:
Negative controls were sprayed with water. Pots were randomly placed in a growth room at 25° C. and 50% RH, and watered as necessary. Treatments were replicated three times and evaluated at 7 and 14 days for visual % damage, with 0% indicating no damage and 100% indicating plant death.
as §4

For assay [10] the following is noted: in vivo; cited from earlier work.

Turning to `CCCCOC(=O)C(C)Oc1ccc(Oc2ccc(C#N)cc2F)cc1` (stereo not shown) [Cyhalofop, 2-[4-(4-cyano-2-fluorophenoxy)phenoxy]propanoic acid, butyl ester], the “% Control Product” value in [1] was found to be 3.3%; in [2] (cyhalofop 0.051 mg/mL) it was 11.7%. Besides, the Redstem % control in assay [3] is given as 75%. Besides, the Sedge % control is listed as 0% in assay [4] and “poor on sedges” in [4] (listed as Clincher CA). Further, the values for the Sprangletop % control in assay [5] and in assay [5] (listed as Clincher CA) were 90% and “good efficacy against grass weeds”, respectively. The Waterplantain % control in assay [6] was determined as 8%.
In the case of `CCC(=O)Nc1ccc(Cl)c(Cl)c1` [propanil], the “% Control Product” value in assay [2] (propanil 0.036 mg/mL) is given as 1.67%; in assay [7], 32.5%. In assay [8], the “% control AI” value is reported as 62.5%. Moreover, in assay [9], the Observed average % efficacy (visual damage) was determined as 32.5%.
Take `CN1C(=O)[C@H](Cc2c[nH]c3cccc([N+](=O)[O-])c23)N(C)C(=O)[C@@H]1Cc1ccccc1` [thaxtomin D, reference compound]: the “activity as pre and post emergent, non-systemic herbicides” value in assay [10] was “marked activity”.
